# Laboratory results taken from publication PMC11305387, “AlphaFold accelerated discovery of psychotropic agonists targeting the trace amine–associated receptor 1” (Science Advances, 2024).
# Experiments:
# H1 receptor = biological target: T1, H1 receptor (Homo sapiens, UniProt P35367); assay: PRESTO-TANGO β-arrestin recruitment; assay type: cell-based; conditions: panel screen, 10 μM; read-out: agonist activity, % of control
# T1 construct: TANGO fusion module (own knowledge, Kroeze et al.: C-terminal V2 tail, TEV site and tTA); 1000000068; host or cells: HTLA (HEK293-derived)
# T1 sequence (P35367 whole entry, the tested form may be a part): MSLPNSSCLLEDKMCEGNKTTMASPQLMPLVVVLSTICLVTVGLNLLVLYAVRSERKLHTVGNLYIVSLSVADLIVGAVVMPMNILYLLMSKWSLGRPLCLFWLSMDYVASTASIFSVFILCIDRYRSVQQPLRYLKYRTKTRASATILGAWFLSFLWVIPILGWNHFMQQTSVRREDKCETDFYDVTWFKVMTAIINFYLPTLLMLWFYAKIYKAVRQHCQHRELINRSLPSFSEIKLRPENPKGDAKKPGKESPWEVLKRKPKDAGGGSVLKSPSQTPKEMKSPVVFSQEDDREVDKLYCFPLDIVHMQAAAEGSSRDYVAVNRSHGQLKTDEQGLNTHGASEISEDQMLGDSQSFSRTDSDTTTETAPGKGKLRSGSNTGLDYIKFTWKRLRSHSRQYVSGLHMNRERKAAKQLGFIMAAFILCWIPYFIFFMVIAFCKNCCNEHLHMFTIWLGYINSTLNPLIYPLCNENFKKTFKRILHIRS
# hTAAR1 = biological target: T2, hTAAR1 (Homo sapiens, UniProt Q96RJ0); assay: G protein (mini-Gs) recruitment luminescence complementation assay, agonist mode; assay type: cell-based
# T2 construct: expressed in transfected cells; host or cells: Expi293F
# T2 sequence (Q96RJ0 1-339): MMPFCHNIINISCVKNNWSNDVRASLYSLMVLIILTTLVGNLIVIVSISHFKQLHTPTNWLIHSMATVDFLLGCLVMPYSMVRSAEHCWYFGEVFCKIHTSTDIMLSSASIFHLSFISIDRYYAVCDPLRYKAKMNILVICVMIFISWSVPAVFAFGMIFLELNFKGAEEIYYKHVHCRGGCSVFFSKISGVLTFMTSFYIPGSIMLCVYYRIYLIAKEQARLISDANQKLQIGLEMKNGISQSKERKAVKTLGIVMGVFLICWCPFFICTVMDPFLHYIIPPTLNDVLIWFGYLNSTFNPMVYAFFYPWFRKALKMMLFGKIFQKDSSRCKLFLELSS
# Protocol: The 62 predicted ligands were purchased from commercial vendors and tested for activity at a concentration of 20 μM in a luminescence complementation–based assay measuring recruitment of mini-Gs to the human TAAR1 ([38]).
# To monitor TAAR1 activation by compounds, we used our previously described system. […] Cells were then reseeded in solid white, 96-well plates (Corning) with 90 μl of cell suspension per well. Luminescence was read using a plate reader for 5 min (SPARK 10 M, Tecan) before the addition of compounds to ensure signal stability. Ten microliters of each compound diluted in DPBS was added, and luminescence from each well was read for 10 min, with 100-ms read time per well. The A2AR counter-screen was performed using the same protocol. In these experiments, the hTAAR1 was replaced by a C-terminally SmBiT-tagged hA2AR construct.
# α2A receptor = biological target: T3, α2A receptor (Homo sapiens, UniProt P08913); assay: PRESTO-TANGO β-arrestin recruitment; assay type: cell-based; conditions: panel screen
# T3 construct: TANGO fusion module (own knowledge, Kroeze et al.: C-terminal V2 tail, TEV site and tTA); 1000000068; host or cells: HTLA (HEK293-derived)
# T3 sequence (P08913 1-465): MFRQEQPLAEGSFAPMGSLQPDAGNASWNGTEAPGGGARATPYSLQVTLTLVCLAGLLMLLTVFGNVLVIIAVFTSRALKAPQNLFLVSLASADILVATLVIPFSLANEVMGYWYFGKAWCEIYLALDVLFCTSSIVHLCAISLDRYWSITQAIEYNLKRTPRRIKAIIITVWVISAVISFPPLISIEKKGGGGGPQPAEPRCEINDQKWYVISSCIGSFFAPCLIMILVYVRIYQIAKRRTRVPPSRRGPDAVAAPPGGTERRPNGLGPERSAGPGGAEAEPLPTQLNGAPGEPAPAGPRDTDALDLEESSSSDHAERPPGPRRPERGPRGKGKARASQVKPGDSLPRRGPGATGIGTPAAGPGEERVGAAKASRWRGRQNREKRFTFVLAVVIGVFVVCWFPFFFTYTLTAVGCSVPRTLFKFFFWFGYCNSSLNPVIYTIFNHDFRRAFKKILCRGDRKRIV
# D2 receptor = biological target: T4, D2 receptor (Homo sapiens, UniProt P14416); assay: cell-based; assay type: cell-based
# T4 construct: TANGO fusion module (own knowledge, Kroeze et al.: C-terminal V2 tail, TEV site and tTA); 1000000068; host or cells: HTLA (HEK293-derived)
# T4 sequence (P14416 whole entry, the tested form may be a part): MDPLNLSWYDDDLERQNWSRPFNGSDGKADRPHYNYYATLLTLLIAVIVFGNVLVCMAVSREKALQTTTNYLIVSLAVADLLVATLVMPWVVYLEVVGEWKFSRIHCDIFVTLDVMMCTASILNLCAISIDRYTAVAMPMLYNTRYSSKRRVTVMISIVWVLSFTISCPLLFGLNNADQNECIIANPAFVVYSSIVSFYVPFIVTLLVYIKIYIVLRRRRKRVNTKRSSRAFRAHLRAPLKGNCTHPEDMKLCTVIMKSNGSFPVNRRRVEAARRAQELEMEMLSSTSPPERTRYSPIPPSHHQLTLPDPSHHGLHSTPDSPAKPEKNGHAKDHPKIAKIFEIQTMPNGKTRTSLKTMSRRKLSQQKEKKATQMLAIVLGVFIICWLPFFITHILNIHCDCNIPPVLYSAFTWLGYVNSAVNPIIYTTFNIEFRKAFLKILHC
# Protocol: (§1) Assessment of receptor activation by compounds at all human aminergic receptors were carried out using a modified version of the PRESTO-TANGO method. […] The plate was spun down, and 5 μl of a 1:25 dilution (in DPBS) of polyethylenimine (PEI) derivative (Transporter 5, Polysciences) was added (1:4 cDNA to PEI ratio) and incubated for 20 min at room temperature (RT). […] Luminescence signal was detected using a plate-reader (SPARK, Tecan) with 100-ms integration time and a 100-ms delay between well reads.
# M2 receptor = biological target: T5, M2 receptor (Homo sapiens, UniProt P08172); assay: PRESTO-TANGO β-arrestin recruitment; assay type: cell-based
# T5 construct: TANGO fusion module (own knowledge, Kroeze et al.: C-terminal V2 tail, TEV site and tTA); 1000000068; host or cells: HTLA (HEK293-derived)
# T5 sequence (P08172 1-466): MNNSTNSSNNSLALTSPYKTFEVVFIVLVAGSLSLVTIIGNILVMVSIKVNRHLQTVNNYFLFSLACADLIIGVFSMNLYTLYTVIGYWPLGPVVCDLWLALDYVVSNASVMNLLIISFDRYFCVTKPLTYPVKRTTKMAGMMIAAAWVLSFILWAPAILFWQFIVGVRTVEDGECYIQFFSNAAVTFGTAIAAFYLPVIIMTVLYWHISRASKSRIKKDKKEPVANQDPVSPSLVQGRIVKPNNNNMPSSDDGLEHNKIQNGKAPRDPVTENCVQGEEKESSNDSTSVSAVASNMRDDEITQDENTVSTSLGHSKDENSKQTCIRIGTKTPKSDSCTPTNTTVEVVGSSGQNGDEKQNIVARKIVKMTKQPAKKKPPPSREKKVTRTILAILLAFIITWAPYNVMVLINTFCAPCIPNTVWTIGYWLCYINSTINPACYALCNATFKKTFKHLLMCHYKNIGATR
# 5-HT1A receptor = biological target: T6, 5-HT1A receptor (Homo sapiens, UniProt P08908); assay: PRESTO-TANGO β-arrestin recruitment; assay type: cell-based; conditions: panel screen
# T6 construct: TANGO fusion module (own knowledge, Kroeze et al.: C-terminal V2 tail, TEV site and tTA); 1000000068; host or cells: HTLA (HEK293-derived)
# T6 sequence (P08908 1-422): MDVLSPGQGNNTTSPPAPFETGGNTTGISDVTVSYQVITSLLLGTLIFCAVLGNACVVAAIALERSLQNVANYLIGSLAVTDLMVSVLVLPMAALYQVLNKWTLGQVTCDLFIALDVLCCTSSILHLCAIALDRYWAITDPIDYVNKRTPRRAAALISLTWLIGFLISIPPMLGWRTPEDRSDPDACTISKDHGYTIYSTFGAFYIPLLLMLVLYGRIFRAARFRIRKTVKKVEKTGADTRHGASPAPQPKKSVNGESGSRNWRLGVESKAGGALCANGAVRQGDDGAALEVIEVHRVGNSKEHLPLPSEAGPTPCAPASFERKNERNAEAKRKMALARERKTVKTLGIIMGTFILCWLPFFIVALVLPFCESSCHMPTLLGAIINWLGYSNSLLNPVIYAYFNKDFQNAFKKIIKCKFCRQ
# 5-HT1D receptor = biological target: T7, 5-HT1D receptor (Homo sapiens, UniProt P28221); assay: PRESTO-TANGO β-arrestin recruitment; assay type: cell-based
# T7 construct: TANGO fusion module (own knowledge, Kroeze et al.: C-terminal V2 tail, TEV site and tTA); 1000000068; host or cells: HTLA (HEK293-derived)
# T7 sequence (P28221 whole entry, the tested form may be a part): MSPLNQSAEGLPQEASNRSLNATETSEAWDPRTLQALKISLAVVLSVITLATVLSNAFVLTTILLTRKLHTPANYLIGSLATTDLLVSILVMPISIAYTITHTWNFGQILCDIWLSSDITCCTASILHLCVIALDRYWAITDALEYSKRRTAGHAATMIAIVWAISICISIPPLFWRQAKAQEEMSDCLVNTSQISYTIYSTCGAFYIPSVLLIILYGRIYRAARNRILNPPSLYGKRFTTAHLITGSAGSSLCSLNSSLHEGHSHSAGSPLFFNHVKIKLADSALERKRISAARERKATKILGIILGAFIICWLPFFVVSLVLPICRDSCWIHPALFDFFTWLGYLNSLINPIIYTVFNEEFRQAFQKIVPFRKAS
# Protocol: as §1
# TAAR1 = conditions: ref Zilberg et al. ([51]); cited from earlier work
Structure (SMILES),activity at 10 µM (H1 receptor) [%],agonist type (hTAAR1; TAAR1),"EC50 (hTAAR1; TAAR1, G protein recruitment assay, read-out: pEC50 (converted)) [nM]",fold more potent than Ulotaront (hTAAR1; TAAR1 G protein recruitment) [fold],fold more potent than the reference agonist β-PEA (hTAAR1; TAAR1 G protein recruitment),"Emax (hTAAR1; relative to the effect of the reference agonist β-PEA, read-out: Emax) [%]",agonism at the α2A receptor (α2A receptor),EC50 (D2 receptor; concentration-response curves) [nM],Emax (D2 receptor; concentration-response curves) [%],agonism at the D2 receptor (D2 receptor; panel screen),EC50 (M2 receptor; concentration-response curves) [nM],Emax (M2 receptor; concentration-response curves) [%],"activity at 10 µM (M2 receptor; panel screen, 10 μM, read-out: agonist activity, % of control) [%]",activation of 5-HT1A receptor (5-HT1A receptor),EC50 (5-HT1D receptor) [nM],Emax (5-HT1D receptor) [%],agonism at the 5-HT1D receptor (5-HT1D receptor; panel screen),TAAR1 agonism (TAAR1)
C1=C(c2ccco2)CNCC1 [Compound 30],70,full agonist,31.6,> 25,~ 10 fold,112,agonism,> 1000,54,agonism,10000,125,55,did not observe a considerable activation,> 1000,52,agonism,–
CN1CC2c3ccccc3Oc3ccc(Cl)cc3C2C1 (stereo not drawn) [asenapine],–,–,–,–,–,–,–,–,–,–,–,–,–,–,–,–,–,potent TAAR1 agonist
